The text below walks through data of paper PMC5458179, “Oxidative DNA double strand breaks and autophagy in the antitumor effect of sterically hindered platinum(II) complexes in NSCLCs” (Oncotarget, 2017).

Structures are written as SMILES.

Type in all cases: cell-based, human
For test [1], the system named is A549 and NCI-H1299 cancer cells. The experiment in a line: Colony formation assay. The settings on record: A549 and NCI-H1299, 7 days. As to the method: Cells were trypsinized and plated at a density of 500 perplate. […] Cells were then fixed with 3% paraformaldehyde, stained with crystal violet and imaged with a light microscope. The experiment was performed in triplicate. The number of colonies, defined as containing > 50 cells, was counted.

For test [2] the test system is unchanged. The experiment in a line: Mitochondrial transmembrane potential (JC-1). The settings on record: A549 and NCI-H1299, 10 μM, 24 h. From the text:
To further study the detailed process of apoptosis induced by complex 3 in NSCLC cells, we examined the mitochondrial membrane potential (ΔΨm), which is an important proapoptotic index for early apoptosis. We chose a mitochondria-specific and voltage-dependent fluorescent probe, JC-1, to observe whether there was loss in ΔΨm.
The electrical potential difference across inner mitochondrial membrane (ΔΨm) was monitored using the ΔΨm-specific fluorescent probe JC-1 (Molecular Probes Inc., Eugene, OR), a sensitive fluorescent dye. […] Red fluorescence is attributable to a potential-dependent aggregation in the mitochondria. Green fluorescence, reflecting the monomeric form of JC-1, appeared in the cytosol after mitochondrial membrane depolarization. Relative fluorescence intensities were monitored using the flow cytometry (FACSCalibur, Becton Dickinson), and analyzed by the software Modfit and Cell Quest (BD Biosciences, Franklin Lakes, NJ) with settings of FL1 (green) at 530 nm and FL2 (red) at 585 nm.

The test system of test [3] is γ-H2AX. In words: Nuclear γH2AX foci analysis. The settings on record: A549, 8 h and 12 h. From the text: The serine 139-phosphorylated form of chromatin-associated histone H2AX, namely γ-H2AX, is a key marker of cellular response to DDR, particularly DSBs. […] Obviously, pre-treatment of NAC could considerably alleviate the DDR triggered by complex 3 (Figure 5B). Therefore, we came to a conclusion that complex 3 caused DDR especially DSBs in A549 cells, which might happen after the increased level of intracellular ROS. In order to reveal the mechanisms underlying the enhanced DNA damage, complex 3 was studied to learn whether it could reduce the activation of DNA repair response including the co-localization of DSB repair protein MDC1/Aprataxin within nucleus. […] In order to reveal the mechanisms underlying DNA damage, complex 3 was studied to detect whether it could suppress the activation of DNA single strand break repair via the phosphorylation of SSB repair mediator/adaptor proteins XRCC1 within nucleus.
For assessment of DSBs repair kinetics we detected the total nuclear volume for an average of 50–60 nuclei per time points and cell type. Briefly, A549 cells were grown to confluence in 35 mm petri-dishes with 0.17 mm glass bottom. […] Non-specific binding was blocked by incubation with 5% FCS/PBS/0.1% Triton X-100 for 1 h at RT. […] Numbers of γH2AX foci were counted in 50–60 nuclei and plotted over time as previously described.

`CC(C)C[NH+]1[C@@H]2CCCC[C@H]2[NH+](CC(C)C)[Pt-2]12[O]C(=O)CC(=O)[O]2` (stereo partly drawn) [Complex 3]: in test [1], the colony formation entry is reported as “significantly reduced colony formation”. In addition, the “mitochondrial membrane potential (ΔΨm)” value in test [2] is “remarkable decrement of ΔΨm”. In test [3], the γ-H2AX result is “obvious increases in γ-H2AX”.
